The values below come from patent US7632838B2, “11-beta HSD1 inhibitors” (Wyeth, priority 2006, dated 2009).

The target of one data set is T1, human 11 b-HSD1 (Homo sapiens, UniProt P28845).
T1 construct: expressed in transfected cells
Briefly: cell-based assay, stable CHO cell line expressing human 11 b-HSD1 (cortisone to cortisol, DiscoverX HitHunter Cortisol Assay). The settings on record: 11βHSD1 inhibition; stated as 'less than about'; read-out: inhibition constant IC50. Here is the method:
Compounds described herein can be tested in a cell-based assay using a stable CHO cell line expressing human 11 b-HSD1. Cells are plated at 20,000 cells/well in 96 well plates and incubated overnight (12-16 hrs) at 37° C./5% CO2. Cells are treated with different concentration of compound in 90 microliter serum-free media and incubated for 30 minutes at 37° C./5% CO2. 10 ul of 5 micromolar cortisone (final concentration 500 nM) is then added to the cells and the plate is incubated at 37° C./5% CO2 for 120 minutes. 15 microliter of media is withdrawn and amount of cortisol in the media is measured using the DiscoverX HitHunter Cortisol Assay (DiscoverX corp, CA).

pIC50: −log10 of the molar value.

T1 sequence (P28845 whole entry): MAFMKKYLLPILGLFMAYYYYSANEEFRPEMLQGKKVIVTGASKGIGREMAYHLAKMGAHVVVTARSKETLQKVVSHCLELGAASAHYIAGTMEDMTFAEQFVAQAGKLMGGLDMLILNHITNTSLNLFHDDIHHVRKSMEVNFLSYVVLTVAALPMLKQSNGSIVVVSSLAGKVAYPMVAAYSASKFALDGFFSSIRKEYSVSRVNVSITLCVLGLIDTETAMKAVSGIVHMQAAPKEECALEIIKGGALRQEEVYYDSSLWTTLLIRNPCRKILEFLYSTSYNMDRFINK

A word on the pIC50: it is the IC50 on a negative log10 scale, so that one unit is a factor of ten. Take `C[C@H]1CN(C(=O)OCc2ccccc2)C[C@H](C)N1S(=O)(=O)c1ccc(C(C)(C)C)cc1` [Example 5, Benzyl (3S,5S)-4-[(4-tert-butylphenyl)sulfonyl]-3,5-dimethylpiperazine-1-carboxylate]: on human 11 b-HSD1, the pIC50 was > 5.00. In the case of `C[C@H]1CN(c2ncccc2Cl)C[C@H](C)N1S(=O)(=O)c1ccc(C(C)(C)C)cc1` [Example 6, (2S,6S)-1-[(4-tert-butylphenyl)sulfonyl]-4-(3-chloropyridin-2-yl)-2,6-dimethylpiperazine], the pIC50 at human 11 b-HSD1 is > 5.00.

Turning to `COc1ccc(S(=O)(=O)N2CCN(c3ncccc3Cl)CC2)cc1` [Example 2G, 1-(3-chloropyridin-2-yl)-4-[(4-methoxyphenyl)sulfonyl]piperazine], the negative logarithm of the IC50 (pIC50) at human 11 b-HSD1 is > 5.00. With `O=S(=O)(c1ccc2ccccc2c1)N1CCN(c2ncccc2Cl)CC1` [Example 2B, 1-(3-chloropyridin-2-yl)-4-(2-naphthylsulfonyl)piperazine], the pIC50 at human 11 b-HSD1 is > 5.00. Consider `O=S(=O)(c1ccc(-c2ccccc2)cc1)N1CCN(c2ncccc2Cl)CC1` [Example 2H, 1-(biphenyl-4-ylsulfonyl)-4-(3-chloropyridin-2-yl)piperazine], for which the pIC50 on human 11 b-HSD1 is > 5.00.

What is called melting point is the temperature, or range, at which the solid turns liquid. As to `O=C(N1CCC(Oc2c(Cl)cccc2Cl)CC1)C12CC3CC(CC(C3)C1)C2` [Example 18D, Adamantan-1-yl-[4-(2,6-dichloro-phenoxy)-piperidin-1-yl]-methanone], the melting point lay in the range of 191 to 199 °C. Turning to `O=S(=O)(c1ccccc1Cl)N1CCN(c2ncccc2Cl)CC1` [Example 2D, 1-[(2-chlorophenyl)sulfonyl]-4-(3-chloropyridin-2-yl)piperazine], on human 11 b-HSD1, the pIC50 is > 5.00.

With `O=S(=O)(c1ccc(Cl)c(Cl)c1)N1CCN(c2ncccc2F)CC1` [Example 13A, 1-[(3,4-dichlorophenyl)sulfonyl]-4-(3-fluoropyridin-2-yl)piperazine], the pIC50 on human 11 b-HSD1 was > 5.00. Turning to `Cc1ccc(S(=O)(=O)N2CCN(c3ncccc3Cl)CC2)cc1` [Example 2F, 1-(3-chloropyridin-2-yl)-4-[(4-methylphenyl)sulfonyl]piperazine], the pIC50 at human 11 b-HSD1 was > 5.00. Turning to `O=S(=O)(Cc1ccccc1)N1CCN(c2ncccc2Cl)CC1` [Example 2I, 1-(benzylsulfonyl)-4-(3-chloropyridin-2-yl)piperazine], the pIC50 on human 11 b-HSD1 is > 5.00.

Turning to `O=S(=O)(c1ccc(C(F)(F)F)cc1Br)N1CCN(c2ncccc2Cl)CC1` [Example 2J, 1-{[2-bromo-4-(trifluoromethyl)phenyl]sulfonyl}-4-(3-chloropyridin-2-yl)piperazine], the pIC50 at human 11 b-HSD1 is > 5.00. On the same count and under the same terms, next, `O=S(=O)(c1ccc(Cl)cc1)N1CCN(c2ncccc2Cl)CC1` [Example 2E, 1-[(4-chlorophenyl)sulfonyl]-4-(3-chloropyridin-2-yl)piperazine]: > 5.00. Consider `N#Cc1cccnc1N1CCN(S(=O)(=O)c2ccc(Cl)c(Cl)c2)CC1` [Example 13B, 2-{4-[(3,4-dichlorophenyl)sulfonyl]piperazin-1-yl}nicotinonitrile], for which the pIC50 at human 11 b-HSD1 was > 5.00. The same measure, in the same setting: next, `O=S(=O)(c1ccc2ccccc2c1)N1CCN(c2ccc(F)cc2C(F)(F)F)CC1` [Example 9F, 1-[4-fluoro-2-(trifluoromethyl)phenyl]-4-(2-naphthylsulfonyl)piperazine]: > 5.00. In the case of `O=[N+]([O-])c1cccnc1N1CCN(S(=O)(=O)c2ccc(Cl)c(Cl)c2)CC1` [Example 13C, 1-[(3,4-dichlorophenyl)sulfonyl]-4-(3-nitropyridin-2-yl)piperazine], at human 11 b-HSD1, the pIC50 is > 5.00. Still for that read-out and setting: next, `CC(C)(C)c1ccc(S(=O)(=O)N2CCN(c3ncccc3Cl)CC2)cc1` [Example 2A, 1-[(4-tert-butylphenyl)sulfonyl]-4-(3-chloropyridin-2-yl)piperazine]: > 5.00.
